Laboratory results taken from ChEMBL document CHEMBL2069186, “Getting the MAX out of Computational Models: The Prediction of Unbound-Brain and Unbound-Plasma Maximum Concentrations” (ACS Med Chem Lett, 2012).

Key:
Plasma = test: Dose normalized fCmax in C57BL/6J mouse plasma at 10 mg/kg, po; format: ADME, organism-based; design: dose 10 mg/kg, route oral; conditions: in vivo
Brain = test: Dose normalized fCmax in C57BL/6J mouse brain at 10 mg/kg, po; format: ADME, organism-based; design: dose 10 mg/kg, route oral; conditions: in vivo

What does the source list for `Nc1ncnc2c1c(COc1cccc(Cl)c1)nn2C1CCOCC1`?
fCmax/dose (Plasma): 180 nM; fCmax/dose (Brain): 88 nM
